Each structure is given as a SMILES string.

The subject of one data set is NMD. The note with it: cited from earlier work.
Data set [1] deals with NMD (Firefly luciferase mRNA tethered with MS2-UPF fusion protein). Nature of the data set: NMD inhibition using Firefly luciferase in HeLa cells. The note with it: 10 μmol/l of G07, versus control wells. In kind it is cell-based. The text has this: The presence of one of the following UPF proteins (UPF1, UPF2, UPF3 (also called UPF3a) or UPF3X (also called UPF3b)) on the 3′UTR part of an mRNA, activates NMD on this particular mRNA. When an UPF protein is located downstream from a normal stop codon, said normal stop codon is recognized as a PTC. Consequently, the mRNA comprising the UPF protein will be degraded through NMD.
HeLa cell-line expressing Firefly luciferase mRNA were used. Firefly luciferase mRNA harbors MS2 binding sites in the 3′UTR. The above-mentioned cells further contain a fusion protein which consists in said MS2 protein and one of the four UPF proteins. This fusion protein enables UPF positioning downstream from the normal stop codon (i.e. on the 3′UTR part of this mRNA). Accordingly, the normal stop codon is recognized as a PTC. Consequently, NMD is activated and degrades Firefly luciferase mRNA.
Luciferase activity in the above-mentioned cells is thus directly linked to NMD activity.
HeLa cells were cultured in DMEM (Gibco) supplemented with 10% FBS and containing 10 μmol/l of G07.

Data set [2] concerns P53 mRNA (UGA PTC at codon 196) in Calu-6 cells. Nature of the data set: P53 mRNA level in Calu-6 cells by RT-PCR. The class given is cell-based.
Source text: RNAs of said Calu-6 cells were reverse transcribed and amplified through PCR (RT-PCR) in the presence of a radioactive labeling nucleotide in order to measure P53 mRNA and GAPDH mRNA levels (GAPDH being used as a loading control). […] Amplified reverse transcribed mRNAs were loaded on an acrylamide gel and submitted to electrophoresis. Acrylamide gel was then dried on Whatman paper and applied on a phosphoscreen (Kodak). A Personal Molecular Imager (Bic-Rad) was used to quantify amplified radiolabelled species. Calu-6 cells were incubated with growing concentrations of G07 in DMSO during about twenty hours. This was carried out in order to confirm NMD inhibition activity of G07. After incubation, RNAs were purified by using TriReagent (MRC) and then reverse-transcribed into cDNA which can be PCR amplified in presence of a radiolabelled nucleotide.
Thus, an increasing quantity of P53 mRNA results from stabilization thereof. […] GAPDH (Glyceraldehyde 3-phosphate deshydrogenase) mRNA was amplified in order to normalize the measurement of P53 mRNA between two lanes.
For data set [3], the system named is P53 protein in Calu-6 cells. Nature of the data set: P53 and P21 protein in Calu-6 cells by Western blot. The class given is cell-based. As to the method:
Moreover, G07 enables the synthesis of a truncated P53 protein and a full-length P53 protein in Calu-6 cells. G07 is thus different from the molecules disclosed in WO 2008/101935. Regarding the molecules disclosed in the above-mentioned document, only the truncated protein has been detected. Protein extracts of Calu-6 cells incubated or not with G07 were loaded on an electrophoresis gel and then transferred on a nitrocellulose membrane in order to detect P53 protein after incubation with an anti-P53 antibody (an anti-P53 antibody is an antibody directed against the amino terminal part of P53 (Santa Cruz)).
When P53 protein is synthesized, P53 activates P21 expression. […] Thus, P53 protein synthesized thanks to G07 induces P21 expression as WT P53 protein does. Consequently, the Applicants have thus confirmed that G07 enables the synthesis of a functional full-length P53 protein.

For data set [4], the system named is MOR mRNA (MOR gene with NMD-activating nonsense-mutation). Nature of the data set: In vivo NMD inhibition in KIM mice (MOR mRNA in brain). The note with it: 1Q and 2Q (0.2 and 2 mg/kg) injected in DMSO, 24 hours after injection. More on the design: species or system mouse. As to the method:
In KIM mice, MOR gene harbors a NMD-activating nonsense-mutation. MOR gene is expressed in nervous central system. Solutions containing 0.2, 2 or 20 mg/kg of G07 (1Q, 2Q or 3Q respectively) dissolved in DMSO were injected into KIM mice. A control group consists of animals treated with pure DMSO. Animals were then euthanized 6, 24 or 32 hours after injection. RNAs extracted from brain homogenates were purified using TriReagent (MRC) and then analyzed as described with reference to FIG. 2. The difference between the experiments described with reference to FIG. 2 is that in the present case the mRNAs analyzed are the mRNA coding for MOR gene and the mRNA coding for the GAPDH gene used as a control to quantify measured MOR mRNA. The first 3 wells from the left correspond to a half dilution of a sample coming from a wild-type mouse brain. These 3 wells were used to check the PCR conditions which have to be quantitatively useful. […] The same technique as described with reference to FIG. 2 was used except the fact that RNA comes from KIM mice brains. Some of these KIM mice were injected with G07.

In data set [5] the test system is CFTR mRNA (PTC at position 1282) in IB3 cells. Nature of the data set: NMD inhibition in IB3 cells (CFTR mRNA by RT-PCR). The class given is cell-based. As to conditions: increasing concentrations, 20 hours. As to the method: IB3 cells harbor a […] in position 1282 in place of the tryptophan codon of the CFTR gene.
IB3 cells (ATCC) were incubated in DMSO solutions containing pure DMSO (as a control) or increasing G07 concentrations, respectively, during 20 hours.
RNAs obtained after incubation were purified and a RT-PCR was performed to measure the amount of CFTR mRNA (containing a PTC) and the amount of GADPH mRNA (used as a control).

The test system of a further data set is CFTR in 6-CFSMEo- cells. Nature of the data set: Iodide efflux in 6-CFSMEo- cells (SPQ fluorescence). The class given is cell-based. As to conditions: 6-CFSMEo- cells, 0.2, 1, 5 and 25 μM; forskolin 20 μM and IBMX 200 μM. As to the method:
6-CFSMEo− cells harbor a PTC in place of the glutamine 2 codon of the CFTR gene.
6-CFSMEo^− cells were seeded in 96-well plates and loaded overnight with 10 mM of the halide-sensitive fluorophore dye 6-methoxy-N-(3-sulfopropyl)-quinolinium (SPQ, Invitrogen). Cells were washed twice with iodide buffer (135 mM NaI, 2.4 mM K2HPO4, 0.6 mM KH2PO4, 1 mM MgSO4, 1 mM CaSO4, 10 mM dextrose and 10 mM Hepes, pH 7.3) and then incubated in iodide buffer for 30 min. After basal fluorescence was measured for 2 min, the iodide buffer was replaced with nitrate buffer (with 135 mM NaNO3 instead of NaI) containing 20 μM of forskolin and 200 μM of IBMX, and fluorescence was further measured for 10 minutes. The fluorescence intensities were measured every 15 seconds using the Tristar LB 941 microplate reader (Berthold) equipped with a 340 nm excitation filter and a 450 nm emission filter. […] G07 concentrations used were 0.2 μM, 1 μM, 5 μM and 25 μM, respectively. The increase in iodide efflux is shown as mean±SEM from at least four independent assays. It refers to the fluorescence at the reading time; F0 refers to the average fluorescence before addition of the above-mentioned nitrate buffer containing 20 μM of forskolin and 200 μM of IBMX.

Data set [6] deals with PTC-containing dystrophin gene in DMD cells. Nature of the data set: Dystrophin mRNA in DMD cells by RT-PCR. In kind it is cell-based. As to the method:
As regards the results of FIG. 11 a, DMD cells were incubated with increasing amounts of […] molecule or as a control with DMSO. RNAs were purified using RNazol reagent (MRC) and reverse transcribed using Superscript. II (Life technologies) and random hexamer. PCR using radiolabelled CTP was performed in order to amplify either dystrophin or GAPDH cDNA. Amplification products were loaded on 5% polyacrylamide gel. The gel was then dried and exposed on phosphoscreen in order to allow quantification of each amplification species by Personal Molecular Imager (Biorad).

Data set [7] has the same test system. Nature of the data set: Dystrophin protein in DMD cells by Western blot. In kind it is cell-based. As to the method:
As regards the results of FIG. 11 b, DMD cells were incubated with increasing amounts of […] molecule or as a control with DMSO. Protein extracts from these cells were loaded on 10% SDS-PAGE and transferred on nitrocellulose membrane. Nitrocellulose membrane was then exposed to primary antibody (either anti-dystrophin antibody raised against the amino-part of dystrophin protein (Santa-Cruz), or anti-tubulin antibody in order to specify the loading protein amount of each lane.

The conditions of data set [8]: after oral administration; cited from earlier work.

With `O=C(O)c1cccc(-c2noc(-c3ccccc3F)n2)c1` [PTC124, 3-[5-(2-fluorophenyl)-1,2,4-oxadiazol-3-yl]benzoïc acid], the NMD inhibiting activity result with NMD is recorded as “no NMD inhibiting activity”.

With `CC(C)c1ccc2oc3nc(N)c(C(=O)O)cc3c(=O)c2c1` [G07, 2-amino-7-isopropyl-5-oxo-5H-chromeno[2,3-b]pyridine-3-carboxylic acid], the “luciferase activity (NMD inhibition)” value in data set [1] is “higher than in control wells”. The “NMD inhibition / P53 mRNA stabilization” value in data set [2] (25 μM) is “inhibits NMD and enables a stabilization of P53 mRNA”. Besides, the “quantity of P53 mRNA (normalised to GAPDH mRNA)” value in data set [2] (growing concentrations in DMSO, about twenty hours) is “increased quantity of P53 mRNA”. In data set [3] (25 and 125 μM), the “P21 protein (functionality of P53)” value is reported as “presence of P21”. In addition, the “P53 protein synthesis (Western blot)” value in data set [3] (about 20 hours incubation) is “full-length and truncated P53 proteins are synthesized”. For the same molecule, the “MOR mRNA level in brain” value in data set [4] is given as “stabilization of MOR mRNA”. Besides, the “ratio amount of CFTR mRNA/amount of GAPDH mRNA” value in [5] is reported as “increased stabilization of CTFR mRNA”. Moreover, the iodide efflux entry in the data set on CFTR in 6-CFSMEo- cells is “dose-response effect”. For the same molecule, the “concentration of maximum efficacy, dystrophin mRNA” value in data set [6] turned out to be 5 µM. Moreover, in [6] (increasing amounts), the “dystrophin mRNA (RT-PCR)” value was “stabilization of dystrophin mRNA”. In addition, the “concentration of maximum efficacy, dystrophin protein” value in data set [7] was 5 µM. For the same molecule, the “dystrophin protein (Western-blot)” value in data set [7] (increasing amounts) was “synthesis of dystrophin protein”. Besides, in data set [8], the tissue distribution result was “preferably distributed in liver, kidneys and intestine”.

The values are drawn from patent US10265302B2, “Compound useful for the treatment of nonsense-mutation-mediated diseases and pharmaceutical composition comprising said compound” (UNIVERSITE DE LILLE, priority 2010, dated 2019).
